Solubility, pH and solubility data for 15 compounds are collected here from US6960590B2, “Orally active salts with tyrosine kinase activity” (Merck & Co. Inc., priority 2000, dated 2005).

Holding throughout (type): physicochemical
Series [1] in a line: Measurement of salt solubility: salts of 1-11 formed in situ and suspended in water, HPLC (UV-Vis). Conditions: for Solubility: free base plus 1.05-1.1 molar equivalence of acid, suspended in water for several days, method overestimates the solubility; for pH: pH in equilibrium with the solid phase of the salt suspended in water, most likely lower than pH of the salt in water. As for the experimental part:
The solid free base was treated with a concentrated solution of the appropriate acid (1.05-1.1 molar equivalence) and suspended in water for several days. The pH and concentration of the compound in equilibrium with the solid phase was measured by HPLC (UV-Vis detection). This method overestimates the solubility of the salt due to the 5-10% excess of the acid that is added in the preparation of the salts. For the same reason, the pH's that are obtained are most likely lower than the pH of the salt in water.

Series [2] can be described thus: Solubility of salts of 4-9 prepared in situ (pH and concentration by HPLC). Conditions: for Solubility: free base plus 1.05 mole equivalents of acid, suspended in 100 μL of water, rotated overnight, centrifuged; for pH: pH of the liquid residue of the aqueous suspension. The text has this:
Two forms of the mesylate salt were made: Salt 4-9A above and Salt 4-9B below.

A short description of series [3]: Solubility of free base 1-11 at room temperature in 0.05M aqueous buffers, water and organic solvents (HPLC). On the procedure: The solubility of 1-11 at room temperature was determined in 0.05M aqueous buffers, water and several organic solvents.
The nature of series [4]: Solubility of isolated crystalline salts of 1-11 in water and organic solvents. Conditions: for solubility at 7 days: thermodynamic from solid, RT for 7 days. As for the experimental part: The amorphous mesylate salt was recrystallized from 50:50 Ethanol:THF to give a crystalline powder (Salt 1-11A). The X-ray powder diffraction pattern (XRPD) of the recrystallized mesylate salt 1-11A (FIG. 2) is indicative of crystalline material with multiple diffraction peaks between 5° and 30° 2-theta.
A second batch of crystalline mesylate salt (Salt 1-11B) was obtained by the following procdeure. To a stirred suspension of 1-11 (4.026 g, 9.22 mmol) in MeOH was slowly added at room temperature (RT) one equivalent of a 0.3M solution of methanesulfonic acid (30.73 mL). After all the solid had dissolved, the mixture was filtered into a flask and concentrated under reduced pressure while cooled to about 10° C. The resulting solid was suspended with 200 mL of ethylacetate, filtered, and dried to afford the mesylate salt. […] This crystalline form is different by XRPD than the one recrystallized from the amorphous salt in EtOH/THF (Salt 1-11A).
HCl salt 1-11D is also crystalline as witnessed by the X-ray powder diffraction pattern of the material, having multiple diffraction peaks between 5° and 30° 2-theta. […] (rate of 10° C./min). The compound is birefringent under plane polarized light. It is needle-shaped particles of approximately 5-25 micron. The solubility of salt 1-11D was measured in water and various organic solvents. Table VI below summarizes the solubility of the 1-11D suspended in various solvents for 7 days at room temperature.

Where a name gives a salt, the structure may show the parent alone.

As for `CS(=O)(=O)N1CCN(Cc2ccc3[nH]c(-c4cc5ccccc5[nH]c4=O)cc3c2)CC1` [Acetate salt of 1-11, 3-[5-(4-Methanesulfonyl-piperazin-1-ylmethyl)-1H-indol-2-yl]-1H-quinolin-2-one], in series [1], the Solubility was 91 µg/mL and the pH is 3.3.
Turning to `CS(=O)(=O)N1CCN(Cc2ccc3[nH]c(-c4cc5ccccc5[nH]c4=O)cc3c2)CC1` [Besylate salt of 1-11, 3-[5-(4-Methanesulfonyl-piperazin-1-ylmethyl)-1H-indol-2-yl]-1H-quinolin-2-one], in series [1], the Solubility was 3.8 µg/mL and the pH was 2.4.
For `CS(=O)(=O)N1CCN(Cc2ccc3[nH]c(-c4cc5ccccc5[nH]c4=O)cc3c2)CC1` [Citrate salt of 1-11, 3-[5-(4-Methanesulfonyl-piperazin-1-ylmethyl)-1H-indol-2-yl]-1H-quinolin-2-one], the Solubility in series [1] was 110 µg/mL.
Take `COCCN(C)CCOc1ccc2[nH]c(-c3cc4ccccc4[nH]c3=O)cc2c1` [Citrate salt of 4-9, 3-(5-{2-[(2-methoxyethyl)(methyl)amino]ethoxy}-1H-indol-2-yl)-2(1H)-quinolinone]: in series [2], the Solubility amounted to 19800 µg/mL and the pH is reported as 3.33.
`CS(=O)(=O)N1CCN(Cc2ccc3[nH]c(-c4cc5ccccc5[nH]c4=O)cc3c2)CC1` [HBr salt of 1-11, 3-[5-(4-Methanesulfonyl-piperazin-1-ylmethyl)-1H-indol-2-yl]-1H-quinolin-2-one]: in series [1], the Solubility is 200 µg/mL and the pH amounted to 2.9.
In the case of `CS(=O)(=O)N1CCN(Cc2ccc3[nH]c(-c4cc5ccccc5[nH]c4=O)cc3c2)CC1` [HCl salt of 1-11, 3-[5-(4-Methanesulfonyl-piperazin-1-ylmethyl)-1H-indol-2-yl]-1H-quinolin-2-one], in series [1], the Solubility is 430 µg/mL and the pH is listed as 2.3.
Take `CS(=O)(=O)N1CCN(Cc2ccc3[nH]c(-c4cc5ccccc5[nH]c4=O)cc3c2)CC1` [Maleate salt of 1-11, 3-[5-(4-Methanesulfonyl-piperazin-1-ylmethyl)-1H-indol-2-yl]-1H-quinolin-2-one]: in series [1], the Solubility is 160 µg/mL and the pH amounted to 2.5.
Regarding `COCCN(C)CCOc1ccc2[nH]c(-c3cc4ccccc4[nH]c3=O)cc2c1` [Mesylate 4-9B, 3-(5-{2-[(2-methoxyethyl)(methyl)amino]ethoxy}-1H-indol-2-yl)-2(1H)-quinolinone], in series [2], the Solubility stood at 22000 µg/mL.
In the case of `CS(=O)(=O)N1CCN(Cc2ccc3[nH]c(-c4cc5ccccc5[nH]c4=O)cc3c2)CC1` [Mesylate salt of 1-11, 3-[5-(4-Methanesulfonyl-piperazin-1-ylmethyl)-1H-indol-2-yl]-1H-quinolin-2-one], in series [1], the Solubility was 580 µg/mL and the pH was found to be 2.3.
Take `CS(=O)(=O)N1CCN(Cc2ccc3[nH]c(-c4cc5ccccc5[nH]c4=O)cc3c2)CC1` [Salt 1-11, 3-[5-(4-Methanesulfonyl-piperazin-1-ylmethyl)-1H-indol-2-yl]-1H-quinolin-2-one]: the Solubility in series [3] (0.05M Carbonate, pH final 10.09, room temperature) came to 79 µg/mL; in series [3] (0.05M Citrate, pH final 4.15, room temperature) it was 73 µg/mL; in series [3] (0.05M Citrate, pH final 5.07, room temperature) it was 70 µg/mL; in series [3] (0.05M Phosphate, pH final 7.93, room temperature), 74 µg/mL; in series [3] (0.05M Phosphate, pH final 8.86, room temperature) it was 73 µg/mL.
For `CS(=O)(=O)N1CCN(Cc2ccc3[nH]c(-c4cc5ccccc5[nH]c4=O)cc3c2)CC1` [Salt 1-11B, 3-[5-(4-Methanesulfonyl-piperazin-1-ylmethyl)-1H-indol-2-yl]-1H-quinolin-2-one], the Solubility in series [4] (acetonitrile, organic solvent or mixture) was found to be 30 µg/mL.
In the case of `CS(=O)(=O)N1CCN(Cc2ccc3[nH]c(-c4cc5ccccc5[nH]c4=O)cc3c2)CC1` [Salt 1-11D, 3-[5-(4-Methanesulfonyl-piperazin-1-ylmethyl)-1H-indol-2-yl]-1H-quinolin-2-one], the solubility at 7 days came to 4340 µg/mL in series [4] (aqueous ETOH, aqueous with cosolvent or surfactant or cyclodextrin); 3990 µg/mL in series [4] (aqueous IPA, aqueous with cosolvent or surfactant or cyclodextrin); 130 µg/mL in series [4] (ethanol, organic solvent or mixture); 57 µg/mL in series [4] (isopropanol, organic solvent or mixture); 620 µg/mL in series [4] (water).
As for `CS(=O)(=O)N1CCN(Cc2ccc3[nH]c(-c4cc5ccccc5[nH]c4=O)cc3c2)CC1` [Sulfate salt of 1-11, 3-[5-(4-Methanesulfonyl-piperazin-1-ylmethyl)-1H-indol-2-yl]-1H-quinolin-2-one], in series [1], the Solubility is 130 µg/mL and the pH amounted to 1.5.
Take `COCCN(C)CCOc1ccc2[nH]c(-c3cc4ccccc4[nH]c3=O)cc2c1` [Sulfate salt of 4-9, 3-(5-{2-[(2-methoxyethyl)(methyl)amino]ethoxy}-1H-indol-2-yl)-2(1H)-quinolinone]: the pH in series [2] is given as 1.40.
With `COCCN(C)CCOc1ccc2[nH]c(-c3cc4ccccc4[nH]c3=O)cc2c1` [Tartrate salt of 4-9, 3-(5-{2-[(2-methoxyethyl)(methyl)amino]ethoxy}-1H-indol-2-yl)-2(1H)-quinolinone], the pH in series [2] is 3.23.

As usually defined, the Solubility is the dissolved amount per volume that the medium holds. In general, solubility refers to how much of the substance goes into solution per volume.
